Assay results reported in US9630977B2, “Cephalosporin derivatives and pharmaceutical compositions thereof” (Legochem Biosciences, Inc., priority 2011, dated 2017).
≈ marks a conversion by molar mass, not a printed value.

Columns and labels:
Assay type in all cases: cell-based
[1] = tested on: K. pneumoniae (38 clinical isolates); test: Antibacterial activity on representative drug-resistance bacteria: number of clinical isolates per MIC value; settings: K. pneumomiae (N = 38)
Protocol: (§1) The in vitro antibacterial activity was evaluated by measuring MIC90 (ug/mL) of each of the compounds of Examples 1 to 68, which is defined as the lowest concentration of an antibiotic that will inhibit the visible growth of 90% of microorganisms after incubation as compared with a control group to which the antibiotic is not treated. MIC90 values were measured by the broth microdilution method developed by the Clinical and Laboratory Standards Institute (CLSI) (see CLSI M7-A5, Methods for Dilution Antimicrobial Susceptibility Test for Bacteria that Grow Aerobically-Fifth Edition (2000): CLSI, Villanova, Pa.).
(§2) Test compounds each (the cephalosporin derivative compounds prepared in Examples 1 to 68) were dissolved in DMSO at the concentration of 10,240 ug/mL, were diluted by two fold with DMSO, and then were diluted by twenty fold with sterilized distilled water. The final concentration in the antibacterial activity test was in the range of […] to 128 ug/mL, and the final concentration of DMSO used as an adjuvant was 2.5% (V/V).

[2] = tested on: P. aeruginosa (16 clinical isolates); test: as above; settings: P. aeruginosa (N = 16)
Protocol: as §1, §2

[3] = tested on: A. baumannii (6 clinical isolates); test: as above; settings: A. baumanni (N = 6)
Protocol: as §1, §2

19 clinical isolates = test: In vitro antibacterial activity test, panel of 19 clinical isolates as a whole; settings: effect of a siderophore group, Table 1
Protocol: To evaluate antibacterial activity of each of the compounds of Examples 1 to 68, in vitro antibacterial activity test was performed.
as §1
In vitro antibacterial activity was measured with respect to the following 19 clinical isolates: M. catarrhalis; P. aeruginosa (5 strains); K. pneumoniae (6 strains); A. baumannii (3 strains); E. coli (2 strains); A. calcoaceticus; and E. cloacae.
as §2

A. baumannii 46 = test: In vitro antibacterial activity test (broth microdilution); settings: Acinetobacter baumannii; A. baumannii 46; read-out: MIC90
Method in brief: (§3)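 Susceptibility of clinical bacterial isolates is measured by CLSI broth microdilution. Final drug concentrations range 0.0626–128 ug/mL in 2.5% (V/V) DMSO; MIC90 recorded as lowest concentration blocking visible growth of 90% of organisms.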

A. baumannii 52 = test: as above; settings: Acinetobacter baumannii; A. baumannii 52; read-out: MIC90
Method in brief: as §3

K. pneumoniae β11 = test: as above; settings: Klebsiella pneumoniae; K. pneumoniae β11; read-out: MIC90
Method in brief: as §3

P. aeruginosa 37 = test: as above; settings: Pseudomonas aeruginosa, 37, P. aeruginosa 37; read-out: MIC90
Method in brief: as §3

K. pneumoniae β13 = test: as above; settings: Klebsiella pneumoniae, K. pneumoniae β13; read-out: MIC90
Method in brief: as §3

K. pneumoniae β10 = test: as above; settings: Klebsiella pneumoniae; K. pneumoniae β10; read-out: MIC90
Method in brief: as §3

K. pneumoniae β9 = test: as above; settings: Klebsiella pneumoniae, K. pneumoniae β9; read-out: MIC90
Method in brief: as §3

K. pneumoniae β14 = test: as above; settings: Klebsiella pneumoniae, read-out: MIC90
Method in brief: as §3

K. pneumoniae 2011E = test: as above; settings: Klebsiella pneumoniae, 2011E, K. pneumoniae 2011E; read-out: MIC90
Method in brief: as §3

P. aeruginosa 1912E = test: as above; settings: Pseudomonas aeruginosa, 1912E, read-out: MIC90
Method in brief: as §3

[4] = tested on: A. calcoaceticus ATCC15473; test: as above; settings: Acinetobacter calcoaceticus; A. calcoaceticus ATCC15473; read-out: MIC90
Method in brief: as §3

P. aeruginosa 40 = test: as above; settings: Pseudomonas aeruginosa, 40, P. aeruginosa 40; read-out: MIC90
Method in brief: as §3

E. coli AG100 = test: as above; settings: Escherichia coli, AG100, E. coli AG100; read-out: MIC90
Method in brief: as §3

P. aeruginosa 43 = test: as above; settings: Pseudomonas aeruginosa; P. aeruginosa 43; read-out: MIC90
Method in brief: as §3

P. aeruginosa 6065Y = test: as above; settings: Pseudomonas aeruginosa, read-out: MIC90
Method in brief: as §3

M. catarrhalis 2524 = test: as above; settings: Moraxella catarrhalis; M. catarrhalis 2524; read-out: MIC90
Method in brief: as §3

E. coli β4 = test: as above; settings: Escherichia coli, read-out: MIC90
Method in brief: as §3

A. baumannii 49 = test: as above; settings: Acinetobacter baumannii; A. baumannii 49; read-out: MIC90
Method in brief: as §3

E. cloacae β19 = test: as above; settings: Enterobacter cloacae, read-out: MIC90
Method in brief: as §3

CC(C)(O/N=C(\C(=O)N[C@@H]1C(=O)N2C(C(=O)[O-])=C(/C=C/C[n+]3cnc(N)c(NCCNC(=O)c4cc(=O)c(O)cn4O)c3)CSC12)c1nc(N)sc1Cl)C(=O)O (stereo partly drawn) [Compound 26]
number of clinical isolates that showed the respective MIC value ([1]; MIC 0.25 ug/mL): 1
number of clinical isolates that showed the respective MIC value ([1]; MIC 0.5 ug/mL): 2
number of clinical isolates that showed the respective MIC value ([1]; MIC 1 ug/mL): 3
number of clinical isolates that showed the respective MIC value ([1]; MIC 2 ug/mL): 1
number of clinical isolates that showed the respective MIC value ([1]; MIC 8 ug/mL): 4
number of clinical isolates that showed the respective MIC value ([1]; MIC 16 ug/mL): 4
number of clinical isolates that showed the respective MIC value ([1]; MIC <0.0625 ug/mL): 1
number of clinical isolates that showed the respective MIC value ([1]; MIC >16 ug/mL): 22
number of clinical isolates that showed the respective MIC value ([2]; MIC 0.0625 ug/mL): 1
number of clinical isolates that showed the respective MIC value ([2]; MIC 0.25 ug/mL): 2
number of clinical isolates that showed the respective MIC value ([2]; MIC 0.5 ug/mL): 3
number of clinical isolates that showed the respective MIC value ([2]; MIC 1 ug/mL): 1
number of clinical isolates that showed the respective MIC value ([2]; MIC 2 ug/mL): 2
number of clinical isolates that showed the respective MIC value ([2]; MIC 4 ug/mL): 3
number of clinical isolates that showed the respective MIC value ([2]; MIC 8 ug/mL): 1
number of clinical isolates that showed the respective MIC value ([2]; MIC >16 ug/mL): 3
number of clinical isolates that showed the respective MIC value ([3]; MIC 0.5 ug/mL): 1
number of clinical isolates that showed the respective MIC value ([3]; MIC 8 ug/mL): 2
number of clinical isolates that showed the respective MIC value ([3]; MIC >16 ug/mL): 3
antibacterial activity (in words) (19 clinical isolates): significantly improved
MIC90 (A. baumannii 46): 2 µg/mL (≈ 2.4 µM)
MIC90 (A. baumannii 52): 2 µg/mL (≈ 2.4 µM)
MIC90 (K. pneumoniae β11): 0.5 µg/mL (≈ 0.599 µM)
MIC90 (P. aeruginosa 37): < 0.0625 µg/mL
MIC90 (K. pneumoniae β13): < 0.0625 µg/mL
MIC90 (K. pneumoniae β10): < 0.0625 µg/mL
MIC90 (K. pneumoniae β9): 0.125 µg/mL (≈ 0.15 µM)
MIC90 (K. pneumoniae β14): 4 µg/mL (≈ 4.79 µM)
MIC90 (K. pneumoniae 2011E): 0.5 µg/mL (≈ 0.599 µM)
MIC90 (P. aeruginosa 1912E): 0.25 µg/mL (≈ 0.3 µM)
MIC90 [4]: 0.5 µg/mL (≈ 0.599 µM)
MIC90 (P. aeruginosa 40): < 0.0625 µg/mL
MIC90 (E. coli AG100): < 0.0625 µg/mL
MIC90 (P. aeruginosa 43): 0.25 µg/mL (≈ 0.3 µM)
MIC90 (P. aeruginosa 6065Y): 0.5 µg/mL (≈ 0.599 µM)
MIC90 (M. catarrhalis 2524): < 0.0625 µg/mL
MIC90 (E. coli β4): < 0.0625 µg/mL
MIC90 (A. baumannii 49): 16 µg/mL (≈ 19.2 µM)
MIC90 (E. cloacae β19): 0.125 µg/mL (≈ 0.15 µM)
